Measurements reported in US8952024B2, “Herbicidal pyrimidone derivatives” (E I du Pont de Nemours and Company, priority 2009, dated 2015).

Assays:
Assay in all cases: Test B pre-/postemergence plant response
Type in all cases: in vivo
[1] = test system: wheat (Triticum aestivum); details: for Wheat plant response rating (0 to 100 scale): 62 g ai/ha, 0 is no effect, 13 to 15 days
Procedure, shortened: (§1)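 Ratings reflect visual comparison with untreated controls 13 to 15 days after application, from 0 (no effect) to 100 (complete control). Application was preemergence to seeded loam/sand soil or postemergence to 1- to 4-leaf plants, with compound in a non-phytotoxic, surfactant-containing solvent.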

[2] = test system: yellow nutsedge (Cyperus esculentus); details: for Nutsedge, Yellow plant response rating (0 to 100 scale): 62 g ai/ha, 0 is no effect, 13 to 15 days
Procedure, shortened: as §1

[3] = test system: downy bromegrass (Bromus tectorum); details: for Bromegrass, Downy plant response rating (0 to 100 scale): 62 g ai/ha, 0 is no effect, 13 to 15 days
Procedure, shortened: as §1

[4] = test system: velvetleaf (Abutilon theophrasti); details: for Velvetleaf plant response rating (0 to 100 scale): 62 g ai/ha, 0 is no effect, 13 to 15 days
Procedure, shortened: as §1

[5] = test system: large crabgrass (Digitaria sanguinalis); details: for Crabgrass, Large plant response rating (0 to 100 scale): 62 g ai/ha, 0 is no effect, 13 to 15 days
Procedure, shortened: as §1

[6] = test system: johnsongrass (Sorghum halepense); details: for Johnsongrass plant response rating (0 to 100 scale): 62 g ai/ha, 0 is no effect, 13 to 15 days
Procedure, shortened: as §1

kochia (Kochia scoparia) = details: for Kochia plant response rating (0 to 100 scale): 62 g ai/ha, 0 is no effect, 13 to 15 days
Procedure, shortened: as §1

[7] = test system: giant foxtail (Setaria faberii); details: for Foxtail, Giant plant response rating (0 to 100 scale): 62 g ai/ha, 0 is no effect, 13 to 15 days
Procedure, shortened: as §1

[8] = test system: woolly cupgrass (Eriochloa villosa); details: for Cupgrass, Woolly plant response rating (0 to 100 scale): 62 g ai/ha, 0 is no effect, 13 to 15 days
Procedure, shortened: as §1

[9] = test system: lambsquarters (Chenopodium album); details: for Lambsquarters plant response rating (0 to 100 scale): 62 g ai/ha, 0 is no effect, 13 to 15 days
Procedure, shortened: as §1

[10] = test system: pigweed (Amaranthus retroflexus); details: for Pigweed plant response rating (0 to 100 scale): 62 g ai/ha, 0 is no effect, 13 to 15 days
Procedure, shortened: as §1

[11] = test system: goosegrass (Eleusine indica); details: for Goosegrass plant response rating (0 to 100 scale): 62 g ai/ha, 0 is no effect, 13 to 15 days
Procedure, shortened: as §1

[12] = test system: green foxtail (Setaria viridis); details: for Foxtail, Green plant response rating (0 to 100 scale): 62 g ai/ha, 0 is no effect, 13 to 15 days
Procedure, shortened: as §1

[13] = 31 g ai/ha, postemergence, scale 0 to 100, 0 is no effect, 100 is complete control
[14] = postemergence, 100 is complete control
[15] = Postemergence, 250 g ai/ha, scale 0 to 100 (0 no effect, 100 complete control)
[16] = Postemergence, 125 g ai/ha, visual rating after 13 to 15 days, scale 0 (no effect) to 100 (complete control)

`CCCCn1c(-c2ccccc2)ncc(C(=O)C2=C(O)CCCC2=O)c1=O` [Compound 86] was tested, and the “Plant response rating, Wheat” value [1, 13] was 5, the “Wheat plant response rating (0 to 100 scale)” value [1, 14] was 35 and the “Plant response rating, Wheat” value [1, 15] was 45. For the same compound, the “Plant response rating, Nutsedge, Yellow” value [2, 13] was 65, the “Nutsedge, Yellow plant response rating (0 to 100 scale)” value [2, 14] was 70 and the “Plant response rating, Nutsedge, Yellow” value [2, 15] was 85. For the same compound, the “Plant response rating, Bromegrass, Downy” value [3, 13] was 10, the “Bromegrass, Downy plant response rating (0 to 100 scale)” value [3, 14] was 10 and the “Plant response rating, Bromegrass, Downy” value [3, 16] was 35. The “Plant response rating, Bromegrass, Downy” value [3, 15] was 50, the “Plant response rating, Velvetleaf” value [4, 13] was 98 and the “Velvetleaf plant response rating (0 to 100 scale)” value [4, 14] was 100. For the same compound, the “Plant response rating, Velvetleaf” value [4, 15] was 100, the “Plant response rating, Crabgrass, Large” value [5, 13] was 85 and the “Crabgrass, Large plant response rating (0 to 100 scale)” value [5, 14] was 98. For the same compound, the “Plant response rating, Crabgrass, Large” value [5, 16] was 98, the “Plant response rating, Crabgrass, Large” value [5, 15] was 98 and the “Plant response rating, Johnsongrass” value [6, 13] was 95. The “Johnsongrass plant response rating (0 to 100 scale)” value [6, 14] was 98, the “Plant response rating, Johnsongrass” value [6, 15] was 100 and the “Plant response rating, Kochia” value (kochia (Kochia scoparia); [13]) was 75. The “Kochia plant response rating (0 to 100 scale)” value (kochia (Kochia scoparia); [14]) was 85, the “Plant response rating, Kochia” value (kochia (Kochia scoparia); [15]) was 98 and the “Plant response rating, Foxtail, Giant” value [7, 13] was 90. The “Foxtail, Giant plant response rating (0 to 100 scale)” value [7, 14] was 95, the “Plant response rating, Foxtail, Giant” value [7, 15] was 98 and the “Plant response rating, Cupgrass, Woolly” value [8, 13] was 75. For the same compound, the “Cupgrass, Woolly plant response rating (0 to 100 scale)” value [8, 14] was 85, the “Plant response rating, Cupgrass, Woolly” value [8, 16] was 95 and the “Plant response rating, Cupgrass, Woolly” value [8, 15] was 95. The “Plant response rating, Lambsquarters” value [9, 13] was 100, the “Lambsquarters plant response rating (0 to 100 scale)” value [9, 14] was 100 and the “Plant response rating, Lambsquarters” value [9, 15] was 100. For the same compound, the “Plant response rating, Pigweed” value [10, 13] was 98, the “Pigweed plant response rating (0 to 100 scale)” value [10, 14] was 100 and the “Plant response rating, Pigweed” value [10, 15] was 100. The “Plant response rating, Goosegrass” value [11, 13] was 70, the “Goosegrass plant response rating (0 to 100 scale)” value [11, 14] was 75 and the “Plant response rating, Goosegrass” value [11, 15] was 95. For the same compound, the “Plant response rating, Foxtail, Green” value [12, 13] was 70, the “Foxtail, Green plant response rating (0 to 100 scale)” value [12, 14] was 95 and the “Plant response rating, Foxtail, Green” value [12, 15] was 100.

For `O=C1CCCC(OC(=O)C2CC2)=C1C(=O)c1cnc(-c2ccccc2)n(-c2ccccc2)c1=O` [Compound 88], the “Plant response rating, Wheat” value [1, 13] was 0, the “Wheat plant response rating (0 to 100 scale)” value [1, 14] was 5 and the “Plant response rating, Wheat” value [1, 15] was 5. For the same compound, the “Plant response rating, Nutsedge, Yellow” value [2, 13] was 25, the “Nutsedge, Yellow plant response rating (0 to 100 scale)” value [2, 14] was 65 and the “Plant response rating, Nutsedge, Yellow” value [2, 15] was 75. The “Plant response rating, Bromegrass, Downy” value [3, 13] was 40, the “Bromegrass, Downy plant response rating (0 to 100 scale)” value [3, 14] was 45 and the “Plant response rating, Bromegrass, Downy” value [3, 16] was 45. For the same compound, the “Plant response rating, Bromegrass, Downy” value [3, 15] was 60, the “Plant response rating, Velvetleaf” value [4, 13] was 80 and the “Velvetleaf plant response rating (0 to 100 scale)” value [4, 14] was 90. The “Plant response rating, Velvetleaf” value [4, 15] was 98, the “Plant response rating, Crabgrass, Large” value [5, 13] was 95 and the “Crabgrass, Large plant response rating (0 to 100 scale)” value [5, 14] was 98. For the same compound, the “Plant response rating, Crabgrass, Large” value [5, 16] was 98, the “Plant response rating, Crabgrass, Large” value [5, 15] was 98 and the “Plant response rating, Johnsongrass” value [6, 13] was 95. The “Johnsongrass plant response rating (0 to 100 scale)” value [6, 14] was 100, the “Plant response rating, Johnsongrass” value [6, 15] was 100 and the “Plant response rating, Kochia” value (kochia (Kochia scoparia); [13]) was 75. The “Kochia plant response rating (0 to 100 scale)” value (kochia (Kochia scoparia); [14]) was 75, the “Plant response rating, Kochia” value (kochia (Kochia scoparia); [15]) was 85 and the “Plant response rating, Foxtail, Giant” value [7, 13] was 95. For the same compound, the “Foxtail, Giant plant response rating (0 to 100 scale)” value [7, 14] was 95, the “Plant response rating, Foxtail, Giant” value [7, 15] was 95 and the “Plant response rating, Cupgrass, Woolly” value [8, 13] was 75. The “Cupgrass, Woolly plant response rating (0 to 100 scale)” value [8, 14] was 80, the “Plant response rating, Cupgrass, Woolly” value [8, 16] was 90 and the “Plant response rating, Cupgrass, Woolly” value [8, 15] was 95. The “Plant response rating, Lambsquarters” value [9, 13] was 95, the “Lambsquarters plant response rating (0 to 100 scale)” value [9, 14] was 98 and the “Plant response rating, Lambsquarters” value [9, 15] was 100. For the same compound, the “Plant response rating, Pigweed” value [10, 13] was 98, the “Pigweed plant response rating (0 to 100 scale)” value [10, 14] was 100 and the “Plant response rating, Pigweed” value [10, 15] was 100. For the same compound, the “Plant response rating, Goosegrass” value [11, 13] was 65, the “Goosegrass plant response rating (0 to 100 scale)” value [11, 14] was 70 and the “Plant response rating, Goosegrass” value [11, 15] was 70. For the same compound, the “Plant response rating, Foxtail, Green” value [12, 13] was 95, the “Foxtail, Green plant response rating (0 to 100 scale)” value [12, 14] was 98 and the “Plant response rating, Foxtail, Green” value [12, 15] was 100.
